The record followed here is patent publication US10688061B2, “Formation of delivery agents targeted to degraded elastic fibers” (priority 2012, dated 2020).

This series relates to Rat aortic vascular smooth muscle cells. As to conditions: positive control (FIG. 22).

Experimental: Cells were seeded at 10,000 cells/cm^2. At 70% confluency, cells were incubated with nanoparticles for 4 hours following which cell viability was determined using a LIVE/DEAD Cell Viability assay (Molecular Probes, Grand Island, N.Y.). Cells fluorescing green were considered alive while cells fluorescing red were considered dead. Additionally, proliferation of cells was estimated using the MTT (3-(4,5-Dimethyl-2-thiazolyl)-2,5-diphenyl-2H-tetrazolium bromide) assay. Briefly, 5 mg of MTT (Sigma Aldrich, St. Louis, Mo.) was dissolved in 10 ml of serum-free media and added to cells. After 4 hours, media was carefully aspirated and the insoluble formazan dye was collected with dimethyl sulfoxide (DMSO) (Sigma Aldrich, St, Louis, Mo.). Absorbance was read at 560 nm and normalized to control (no treatment) readings.

The molecule `CCO` [70% ethanol, ethanol] came in with a Cell death greater than 95%.
